Measured values as given in ChEMBL document CHEMBL3272258, “Quantitative structure-activity relationships. 1. The modified Free-Wilson approach” (J Med Chem, 1976).

How the values were obtained:
Rattus norvegicus [1] = species: Rattus norvegicus; experiment: Binding affinity to rat thyroid hormone receptor
[2] = tested on: Trichophyton mentagrophytes; experiment: Antifungal activity against Trichophyton mentagrophytes assessed as growth inhibition measured for 14 days by tube dilution method; assay type: functional
[3] = n-octanol-water partition coefficient, log P of the compound; assay type: physicochemical
Rattus norvegicus [4] = species: Rattus norvegicus; experiment: Antagonist activity at rat adrenergic receptor assessed as inhibition of adrenaline-induced response

SMILES | log(activity) (Rattus norvegicus [1]) | logP [3] | log(1/C) [2] | log(1/C) (Rattus norvegicus [4])
NC(Cc1cc(Br)c(Oc2cc(Br)c(O)c(Br)c2)c(Br)c1)C(=O)O (racemic) | -0.29 | – | – | –
NC(Cc1cc(Br)c(Oc2ccc(O)c(Br)c2)c(Br)c1)C(=O)O (racemic) | 1.64 | – | – | –
NC(Cc1cc(Br)c(Oc2cc(I)c(O)c(I)c2)c(Br)c1)C(=O)O (racemic) | 1.1 | – | – | –
CN(C)CC(Br)c1ccc(F)cc1 (configuration not stated) | – | – | – | 8.16
CN(C)CC(Br)c1ccccc1 (configuration not stated) | – | – | – | 7.46
CN(C)CC(Br)c1ccc(Br)c(Cl)c1 (configuration not stated) | – | – | – | 9
Cc1ccc(C(Br)CN(C)C)cc1Br (configuration not stated) | – | – | – | 9.52
CN(C)CC(Br)c1cccc(Cl)c1 (configuration not stated) | – | – | – | 8.16
CN(C)CC(Br)c1ccc(Br)c(Br)c1 (configuration not stated) | – | – | – | 9.35
NC(Cc1cc(I)c(Oc2cc(Br)c(O)c(Br)c2)c(I)c1)C(=O)O (racemic) | 1 | – | – | –
Cc1cc(C(Br)CN(C)C)ccc1Cl (configuration not stated) | – | – | – | 8.96
CN(C)CC(Br)c1ccc(Cl)cc1 (configuration not stated) | – | – | – | 8.68
CN(C)CC(Br)c1cccc(Br)c1 (configuration not stated) | – | – | – | 8.3
CN(C)CC(Br)c1ccc(Cl)c(Cl)c1 (configuration not stated) | – | – | – | 8.89
Cc1ccc(C(Br)CN(C)C)cc1 (configuration not stated) | – | – | – | 9.3
NC(Cc1cc(I)c(Oc2cc(I)c(O)c(I)c2)c(I)c1)C(=O)O (racemic) | 2 | – | – | –
Cc1cccc(C(Br)CN(C)C)c1 (configuration not stated) | – | – | – | 8.46

SMILES | log(activity) (Rattus norvegicus [1]) | logP [3] | log(1/C) [2] | log(1/C) (Rattus norvegicus [4])
CN(C)CC(Br)c1ccc(Cl)c(Br)c1 (configuration not stated) | – | – | – | 8.92
NC(Cc1cc(I)c(Oc2cc(F)c(O)c(F)c2)c(I)c1)C(=O)O (racemic) | 0.26 | – | – | –
NC(Cc1cc(I)c(Oc2ccc(O)c(Br)c2)c(I)c1)C(=O)O (racemic) | 2.3 | – | – | –
CN(C)CC(Br)c1ccc(F)c(Cl)c1 (configuration not stated) | – | – | – | 8.19
NC(Cc1cc(Br)c(Oc2ccc(O)c(I)c2)c(Br)c1)C(=O)O (racemic) | 2.11 | – | – | –
Cc1cc(C(Br)CN(C)C)ccc1Br (configuration not stated) | – | – | – | 9.22
CN(C)CC(Br)c1cccc(I)c1 (configuration not stated) | – | – | – | 8.4
NC(Cc1cc(I)c(Oc2ccc(O)c(F)c2)c(I)c1)C(=O)O (racemic) | 0.38 | – | – | –
Cc1ccc(C(Br)CN(C)C)cc1C (configuration not stated) | – | – | – | 9.3
CN(C)CC(Br)c1cccc(F)c1 (configuration not stated) | – | – | – | 7.52
NC(Cc1cc(I)c(Oc2cc(F)c(O)c(I)c2)c(I)c1)C(=O)O (racemic) | 1.45 | – | – | –
CN(C)CC(Br)c1ccc(F)c(Br)c1 (configuration not stated) | – | – | – | 8.57
CN(C)CC(Br)c1ccc(Br)cc1 (configuration not stated) | – | – | – | 8.89
CN(C)CC(Br)c1ccc(I)cc1 (configuration not stated) | – | – | – | 9.25
NC(Cc1cc(I)c(Oc2cc(Cl)c(O)c(Cl)c2)c(I)c1)C(=O)O (racemic) | -0.05 | – | – | –
Cc1cc(C(Br)CN(C)C)ccc1F (configuration not stated) | – | – | – | 8.82

More lines, main results first:

log(activity) (Rattus norvegicus [1]) | logP [3] | SMILES | log(1/C) [2] | log(1/C) (Rattus norvegicus [4])
– | 2.84 | Cc1cc(Cl)ccc1OCC(C)O (configuration not stated) | 3.3 | –
– | 1.29 | OCC(O)COc1ccccc1Cl (configuration not stated) | 2.31 | –
– | 2.36 | OCCCOc1ccc(Cl)cc1 | 3.07 | –
-1 | – | NC(Cc1cc(Cl)c(Oc2cc(I)c(O)c(I)c2)c(Cl)c1)C(=O)O (racemic) | – | –
– | 1.97 | Cc1cccc(Cl)c1OCC(O)CO (configuration not stated) | 2.33 | –
– | 1.4 | OCC(O)COc1ccc(Cl)cc1 (configuration not stated) | 2.31 | –
– | 3.18 | Cc1cc(OCC(C)O)cc(C)c1Cl (configuration not stated) | 3.68 | –
– | 2.4 | Cc1cc(Cl)c(OCC(O)CO)c(Cl)c1 (configuration not stated) | 3.1 | –
– | 2.75 | CC(O)COc1ccc(Cl)cc1Cl (configuration not stated) | 3.35 | –
– | 3.52 | Cc1cc(Cl)cc(C)c1OCC(C)O (configuration not stated) | 3.51 | –
– | 2.34 | Cc1ccccc1OCCCO | 2.79 | –
– | 2.05 | CC(O)COc1ccccc1Cl (configuration not stated) | 2.84 | –
– | 2.67 | Cc1cc(OCC(C)O)ccc1Cl (configuration not stated) | 3.3 | –
– | 2.42 | Cc1cc(OCC(O)CO)cc(C)c1Cl (configuration not stated) | 3.24 | –
– | 3.38 | Cc1cc(OCCCO)cc(C)c1Cl | 3.93 | –
– | 3.16 | Cc1cc(Cl)c(OCC(C)O)c(Cl)c1 (configuration not stated) | 3.47 | –

log(activity) (Rattus norvegicus [1]) | logP [3] | SMILES | log(1/C) [2] | log(1/C) (Rattus norvegicus [4])
-0.43 | – | NC(Cc1cc(I)c(Oc2ccc(O)cc2)c(I)c1)C(=O)O (racemic) | – | –
– | 3.72 | Cc1cc(Cl)cc(C)c1OCCCO | 3.51 | –
– | 2.08 | Cc1cc(Cl)ccc1OCC(O)CO (configuration not stated) | 2.33 | –
– | 1.88 | OCC(O)COc1c(Cl)cccc1Cl (configuration not stated) | 2.37 | –
2.74 | – | NC(Cc1cc(I)c(Oc2ccc(O)c(I)c2)c(I)c1)C(=O)O (racemic) | – | –
– | 3.36 | Cc1cc(Cl)c(OCCCO)c(Cl)c1 | 3.67 | –
– | 2.16 | CC(O)COc1ccc(Cl)cc1 (configuration not stated) | 2.81 | –
– | 2.76 | Cc1cc(Cl)cc(C)c1OCC(O)CO (configuration not stated) | 2.76 | –
– | 1.38 | Cc1ccccc1OCC(O)CO (configuration not stated) [MEPHENESIN] | 2.26 | –
– | 1.91 | Cc1cc(OCC(O)CO)ccc1Cl (configuration not stated) | 2.9 | –
– | 1.99 | OCC(O)COc1ccc(Cl)cc1Cl (configuration not stated) | 2.61 | –
– | 2.73 | Cc1cccc(Cl)c1OCC(C)O (configuration not stated) | 2.7 | –
– | 2.64 | CC(O)COc1c(Cl)cccc1Cl (configuration not stated) | 3.04 | –
– | 2.14 | Cc1ccccc1OCC(C)O (configuration not stated) | 2.46 | –
– | 2.93 | Cc1cccc(Cl)c1OCCCO | 2.78 | –
